In patent publication US10266609B2, “Immunomodulating beta-1,6-D-glucans” (Innate Biotherapeutics, LLC, priority 2014, dated 2019):

System: Anti-β-1,6-Glucan IgG antibodies (affinity purified from IVIG, Baxter)
Assay: ELISA: binding of oligosaccharides to anti-β-1,6-glucan antibodies; note: key: a plus (+) sign indicates that the glucan was active in the assay; a minus (−) sign indicates that the glucan was not active; the '+/−' symbol indicates inconclusive results
Conditions: plate coated with oligosaccharide in PBS; 40 ug/mL anti-Beta 1,6 Glucan IgG; anti-human IgG-HRP, TMB, absorbance at 620 nm
Description: Binding of oligosaccharides to anti-β-1,6-glucan antibodies is performed as described in the following protocol.
• 1. […] Anti-β-1,6-Glucan IgG antibodies (affinity purified from IVIG, Baxter) • 6. […] PBS-Tween buffer (PH 7.2, 0.05% Tween 20, Kpl cat #51-12-01) II. Method: Detection of Anti-Beta Glucan IgG by ELISA • 1. Coat plate with oligosaccharides in PBS overnight at 4° C. • 2. Wash 3 times with 250 uL of PBS-Tween • 3. Empty plate • 4. Block plate with 200 uL of Casein for 1 hour at room temperature • 5. Empty plate • 6. Add 40 ug/mL anti-Beta 1,6 Glucan IgG (4 ug/well) in Casein • 7. Incubate for 45 min at room temperature • 8. Wash 3 times with 250 uL of PBS-Tween • 9. Empty plate • 10. Add detection antibody: anti-human IgG-HRP at 1:5000—in casein. Incubate for 45 min at room temperature in the dark • 11. Wash 5 times with 250 uL of PBS-Tween • 12. Empty plate • 13. Add 100 uL of one step ultra TMB • 14. Measure the absorbance at 620 nm every 1 min for 60 min Tables 1-3 provide ELISA assay data for certain glucan compounds.

Row | Compound | ELISA assay data: glucan active in detection of anti-beta glucan IgG
1 | O=C(O)c1cc(OCc2cn(CCO[C@H]3O[C@H](CO[C@@H]4O[C@H](CO[C@@H]5O[C@H](CO)[C@@H](O)[C@H](O)[C@H]5O)[C@@H](O)[C@H](O)[C@H]4O)[C@@H](O)[C@H](O)[C@H]3O)nn2)cc(OCc2cn(CCO[C@H]3O[C@H](CO[C@@H]4O[C@H](CO[C@@H]5O[C@H](CO)[C@@H](O)[C@H](O)[C@H]5O)[C@@H](O)[C@H](O)[C@H]4O)[C@@H](O)[C@H](O)[C@H]3O)nn2)c1 [(β-D-glucopyanosy1-1,6)nα-O(CH2)2-, n=3, 3,5-bis(1[2-[O-β-D-glucopyranosyl-(1→6)-O-β-D-glucopyranosyl-(1→6)-α-D-glucopyranosyl]oxy]ethyl-1H-1,2,3-triazol-4-yl)methoxybenzoic acid] | +
2 | COC1O[C@H](CO[C@@H]2O[C@H](CO[C@@H]3O[C@H](CO[C@@H]4O[C@H](CO[C@@H]5O[C@H](CO[C@@H]6O[C@H](CO[C@@H]7O[C@H](CO)[C@@H](O)[C@H](O)[C@H]7O)[C@@H](O)[C@H](O)[C@H]6O)[C@@H](O)[C@H](O)[C@H]5O)[C@@H](O)[C@H](O)[C@H]4O)[C@@H](O)[C@H](O)[C@H]3O)[C@@H](O)[C@H](O)[C@H]2O)[C@@H](O)[C@H](O)[C@H]1O (stereo partly drawn) [OCH3, n=7, methyl [O-β-D-glucopyranosyl-1,6]6-D-glucopyranoside] | +
3 | N-[6-[(O-(β-D-glucopyranosyl-(1,6))3-β-D-glucopyranosyl](2RS,3R,4R,5R)-2,3,4,5-tetrahydroxyhexyl]-4-piperidylacetic acid [4-piperidine(CH2)CO2H, n=4] | +
4 | CN(Cc1ccc(C(=O)O)cc1)CC(O)[C@@H](O)[C@H](O)[C@H](O)CO[C@@H]1O[C@H](CO[C@@H]2O[C@H](CO[C@@H]3O[C@H](CO[C@@H]4O[C@H](CO[C@@H]5O[C@H](CO)[C@@H](O)[C@H](O)[C@H]5O)[C@@H](O)[C@H](O)[C@H]4O)[C@@H](O)[C@H](O)[C@H]3O)[C@@H](O)[C@H](O)[C@H]2O)[C@@H](O)[C@H](O)[C@H]1O (mixture of isomers) [N(Me),N(CH2)4-BzOH, n=5] | +
5 | COC1O[C@H](CO[C@@H]2O[C@H](CO[C@@H]3O[C@H](CO[C@@H]4O[C@H](CO[C@@H]5O[C@H](CO[C@@H]6O[C@H](CO[C@@H]7O[C@H](CO[C@@H]8O[C@H](CO[C@@H]9O[C@H](CO[C@@H]%10O[C@H](CO[C@@H]%11O[C@H](CO)[C@@H](O)[C@H](O)[C@H]%11O)[C@@H](O)[C@H](O)[C@H]%10O)[C@@H](O)[C@H](O)[C@H]9O)[C@@H](O)[C@H](O)[C@H]8O)[C@@H](O)[C@H](O)[C@H]7O)[C@@H](O)[C@H](O)[C@H]6O)[C@@H](O)[C@H](O)[C@H]5O)[C@@H](O)[C@H](O)[C@H]4O)[C@@H](O)[C@H](O)[C@H]3O)[C@@H](O)[C@H](O)[C@H]2O)[C@@H](O)[C@H](O)[C@H]1O (stereo partly drawn) [OCH3, n=11, methyl [O-β-D-glucopyranosyl-1,6]10-D-glucopyranoside] | +
6 | OC[C@H]1O[C@@H](OC[C@H]2O[C@@H](OC[C@H]3O[C@@H](OC[C@H]4O[C@@H](OC[C@H]5O[C@@H](OC[C@H]6O[C@@H](OC[C@H]7O[C@@H](OC[C@H]8O[C@H](OCCCl)[C@H](O)[C@@H](O)[C@@H]8O)[C@H](O)[C@@H](O)[C@@H]7O)[C@H](O)[C@@H](O)[C@@H]6O)[C@H](O)[C@@H](O)[C@@H]5O)[C@H](O)[C@@H](O)[C@@H]4O)[C@H](O)[C@@H](O)[C@@H]3O)[C@H](O)[C@@H](O)[C@@H]2O)[C@H](O)[C@@H](O)[C@@H]1O [α-O(CH2)2Cl, n=8, 2-chloroethyl [O-β-D-glucopyranosyl-1,6]7-D-glucopyranoside] | +
7 | O=C(O)c1cc(OCc2cn(CCO[C@@H]3O[C@H](CO[C@@H]4O[C@H](CO[C@@H]5O[C@H](CO[C@@H]6O[C@H](CO[C@@H]7O[C@H](CO[C@@H]8O[C@H](CO)[C@@H](O)[C@H](O)[C@H]8O)[C@@H](O)[C@H](O)[C@H]7O)[C@@H](O)[C@H](O)[C@H]6O)[C@@H](O)[C@H](O)[C@H]5O)[C@@H](O)[C@H](O)[C@H]4O)[C@@H](O)[C@H](O)[C@H]3O)nn2)cc(OCc2cn(CCO[C@@H]3O[C@H](CO[C@@H]4O[C@H](CO[C@@H]5O[C@H](CO[C@@H]6O[C@H](CO[C@@H]7O[C@H](CO[C@@H]8O[C@H](CO)[C@@H](O)[C@H](O)[C@H]8O)[C@@H](O)[C@H](O)[C@H]7O)[C@@H](O)[C@H](O)[C@H]6O)[C@@H](O)[C@H](O)[C@H]5O)[C@@H](O)[C@H](O)[C@H]4O)[C@@H](O)[C@H](O)[C@H]3O)nn2)c1 [(β-D-glucopyanosy1-1,6)nβ-O(CH2)2-, n=6, 3,5-bis(1[2-[O-β-D-glucopyranosyl-(1→6)]6oxy]ethyl-1H-1,2,3-triazol-4-yl)methoxybenzoic acid] | +
8 | [N-]=[N+]=NCCO[C@@H]1O[C@H](CO[C@@H]2O[C@H](CO[C@@H]3O[C@H](CO[C@@H]4O[C@H](CO)[C@@H](O)[C@H](O)[C@H]4O)[C@@H](O)[C@H](O)[C@H]3O)[C@@H](O)[C@H](O)[C@H]2O)[C@@H](O)[C@H](O)[C@H]1O (stereo in doubt) [β-O(CH2)2N3, n=4, 2-Azido ethyl [O-β-D-glucopyranosyl-1,6]3-β-D-glucopyranoside] | +
9 | [O-β-D-glucopyranosyl-1,6]6-D-glucopyranoside [OH, n=7] | +
10 | OC[C@H]1O[C@@H](OC[C@H]2O[C@@H](OC[C@H]3OC(OCCCl)[C@H](O)[C@@H](O)[C@@H]3O)[C@H](O)[C@@H](O)[C@@H]2O)[C@H](O)[C@@H](O)[C@@H]1O (stereo partly drawn) [α-O(CH2)2Cl, n=3, 2-chloroethyl [O-β-D-glucopyranosyl-1,6]2-D-glucopyranoside] | +
11 | OC[C@H]1O[C@@H](OC[C@H]2O[C@@H](OC[C@H]3O[C@@H](OC[C@H]4O[C@@H](OC[C@H]5O[C@@H](OC[C@H]6O[C@@H](OC[C@H]7O[C@@H](OC[C@H]8O[C@@H](OC[C@H]9O[C@@H](OC[C@H]%10O[C@@H](OC[C@H]%11OC(O)[C@H](O)[C@@H](O)[C@@H]%11O)[C@H](O)[C@@H](O)[C@@H]%10O)[C@H](O)[C@@H](O)[C@@H]9O)[C@H](O)[C@@H](O)[C@@H]8O)[C@H](O)[C@@H](O)[C@@H]7O)[C@H](O)[C@@H](O)[C@@H]6O)[C@H](O)[C@@H](O)[C@@H]5O)[C@H](O)[C@@H](O)[C@@H]4O)[C@H](O)[C@@H](O)[C@@H]3O)[C@H](O)[C@@H](O)[C@@H]2O)[C@H](O)[C@@H](O)[C@@H]1O (stereo partly drawn) [OH, n=11, [O-β-D-glucopyranosyl-1,6]10-D-glucose] | +
12 | CO[C@H]1O[C@H](CO[C@@H]2O[C@H](CO[C@@H]3O[C@H](CO[C@@H]4O[C@H](CO[C@@H]5O[C@H](CO[C@@H]6O[C@H](CO)[C@@H](O)[C@H](O)[C@H]6O)[C@@H](O)[C@H](O)[C@H]5O)[C@@H](O)[C@H](O)[C@H]4O)[C@@H](O)[C@H](O)[C@H]3O)[C@@H](O)[C@H](O)[C@H]2O)[C@@H](O)[C@H](O)[C@H]1O [OCH3, n=6, methyl [O-β-D-glucopyranosyl-1,6]5-D-glucopyranoside] | +
13 | CN(Cc1ccc(C(=O)O)cc1)CC(O)[C@@H](O)[C@H](O)[C@H](O)CO[C@@H]1O[C@H](CO[C@@H]2O[C@H](CO[C@@H]3O[C@H](CO[C@@H]4O[C@H](CO[C@@H]5O[C@H](CO[C@@H]6O[C@H](CO)[C@@H](O)[C@H](O)[C@H]6O)[C@@H](O)[C@H](O)[C@H]5O)[C@@H](O)[C@H](O)[C@H]4O)[C@@H](O)[C@H](O)[C@H]3O)[C@@H](O)[C@H](O)[C@H]2O)[C@@H](O)[C@H](O)[C@H]1O (mixture of isomers) [N(Me),N(CH2)4-BzOH, n=6] | +
14 | OCC1OC(OCC2OC(OCC3OC(OCC4OC(O)C(O)C(O)C4O)C(O)C(O)C3O)C(O)C(O)C2O)C(O)C(O)C1O (centres unmarked) [OH, n=4] | +
15 | N#C[C@H](O[C@@H]1O[C@H](CO[C@@H]2O[C@H](CO)[C@@H](O)[C@H](O)[C@H]2O)[C@@H](O)[C@H](O)[C@H]1O)c1ccccc1 [β-OCH(CN)Ph, n=2, amygdalin, reference compound] | −
16 | [N-]=[N+]=NCCOC1OC(COC2OC(COC3OC(COC4OC(COC5OC(COC6OC(CO)C(O)C(O)C6O)C(O)C(O)C5O)C(O)C(O)C4O)C(O)C(O)C3O)C(O)C(O)C2O)C(O)C(O)C1O (stereo not drawn) [α-O(CH2)2N3, n=6] | +
17 | CN(CCCCCN)CC(O)[C@@H](O)[C@H](O)[C@H](O)CO[C@@H]1O[C@H](CO[C@@H]2O[C@H](CO[C@@H]3O[C@H](CO[C@@H]4O[C@H](CO[C@@H]5O[C@H](CO)[C@@H](O)[C@H](O)[C@H]5O)[C@@H](O)[C@H](O)[C@H]4O)[C@@H](O)[C@H](O)[C@H]3O)[C@@H](O)[C@H](O)[C@H]2O)[C@@H](O)[C@H](O)[C@H]1O (mixture of isomers) [N(Me),N(CH2)5NH2, n=5] | +
